According to US8853196B2, “Aminochromane, aminothiochromane and amino-1,2,3,4-tetrahydroquinoline derivatives, pharmaceutical compositions containing them, and their use in therapy” (AbbVie Deutschland GmbH & Co. KG, priority 2011, dated 2014):
Where a name gives a salt, the structure may show the parent alone.

Molecular target: T1, human GlyT1c transporter (Homo sapiens, UniProt P48067)
T1 construct: expressed in transfected cells; host or cells: CHO cells (recombinant; membranes)
T1 sequence (P48067 1-706): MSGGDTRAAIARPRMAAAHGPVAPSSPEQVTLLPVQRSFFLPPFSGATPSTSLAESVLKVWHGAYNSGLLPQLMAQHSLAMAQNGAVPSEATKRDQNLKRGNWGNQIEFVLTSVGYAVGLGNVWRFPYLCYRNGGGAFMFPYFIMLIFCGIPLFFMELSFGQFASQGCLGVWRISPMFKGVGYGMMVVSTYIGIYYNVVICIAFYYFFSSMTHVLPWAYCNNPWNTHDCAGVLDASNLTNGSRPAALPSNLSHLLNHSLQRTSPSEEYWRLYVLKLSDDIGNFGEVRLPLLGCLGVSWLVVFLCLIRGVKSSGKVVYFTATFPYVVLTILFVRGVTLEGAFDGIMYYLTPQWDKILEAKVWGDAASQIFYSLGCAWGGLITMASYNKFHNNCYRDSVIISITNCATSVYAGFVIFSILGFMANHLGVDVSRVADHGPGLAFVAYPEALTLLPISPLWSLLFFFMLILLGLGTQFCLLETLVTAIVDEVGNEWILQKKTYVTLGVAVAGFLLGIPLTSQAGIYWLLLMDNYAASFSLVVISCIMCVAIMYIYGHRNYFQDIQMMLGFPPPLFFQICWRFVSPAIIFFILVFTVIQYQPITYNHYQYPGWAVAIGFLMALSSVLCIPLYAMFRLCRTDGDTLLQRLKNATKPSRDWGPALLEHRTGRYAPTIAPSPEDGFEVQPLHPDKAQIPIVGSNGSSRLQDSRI
Experiment: Radioligand binding assay using recombinant CHO cell membranes expressing human GlyT1
Details: values given as upper bounds, read-out: radioligand binding Kiapp
Method: 2. Radioligand Binding Assays Using Recombinant CHO Cell Membranes Expressing Human GlyT1:
Radioligand binding to human GlyT1c transporter-expressing membranes was determined as described in Mezler et al., Molecular Pharmacology 74:1705-1715, 2008.

Structure (SMILES) | Ki
CN[C@@H]1COc2ccc(OCCNS(=O)(=O)c3cnn(C)c3)cc2[C@@H]1Cc1ccccc1 (relative stereo) [Example 1a, cis-N-(2-{[4-Benzyl-3-(methylamino)-3,4-dihydro-2H-chromen-6-yl]oxy}ethyl)-1-methyl-1H-pyrazole-4-sulfonamide hydrochloride] | ≤ 10 nM
CN[C@@H]1COc2ccc(OCCNS(=O)(=O)c3cnn(C)c3)cc2[C@H]1Cc1ccccc1 (relative stereo) [Example 1b, trans-N-(2-{[-4-benzyl-3-(methylamino)-3,4-dihydro-2H-chromen-6-yl]oxy}ethyl)-1-methyl-1H-pyrazole-4-sulfonamide hydrochloride] | ≤ 10 nM
CN[C@@H]1COc2ccc(OCCNS(=O)(=O)c3cn(C)cn3)cc2[C@@H]1Cc1ccccc1 (relative stereo) [Example 2a, cis-N-(2-{[-4-Benzyl-3-(methylamino)-3,4-dihydro-2H-chromen-6-yl]oxy}ethyl)-1-methyl-1H-imidazole-4-sulfonamide] | ≤ 10 nM
CN[C@@H]1COc2ccc(OCCNS(=O)(=O)c3cn(C)cn3)cc2[C@H]1Cc1ccccc1 (relative stereo) [Example 2b, trans-N-(2-{[-4-benzyl-3-(methylamino)-3,4-dihydro-2H-chromen-6-yl]oxy}ethyl)-1-methyl-1H-imidazole-4-sulfonamide] | ≤ 10 nM
CCCS(=O)(=O)NCCOc1ccc2c(c1)[C@H](Cc1ccccc1)[C@H](NC)CO2 (relative stereo) [Example 3a, cis-N-(2-{[-4-Benzyl-3-(methylamino)-3,4-dihydro-2H-chromen-6-yl]oxy}ethyl)propane-1-sulfonamide] | ≤ 100 nM
CCCS(=O)(=O)NCCOc1ccc2c(c1)[C@@H](Cc1ccccc1)[C@H](NC)CO2 (relative stereo) [Example 3b, trans-N-(2-{[-4-benzyl-3-(methylamino)-3,4-dihydro-2H-chromen-6-yl]oxy}ethyl)propane-1-sulfonamide] | ≤ 1000 nM
CN[C@@H]1COc2ccc(OCCNS(=O)(=O)CC3CC3)cc2[C@@H]1Cc1ccccc1 (relative stereo) [Example 4a, cis-N-(2-{[-4-Benzyl-3-(methylamino)-3,4-dihydro-2H-chromen-6-yl]oxy}ethyl)-1-cyclopropylmethanesulfonamide] | ≤ 10 nM
CN[C@@H]1COc2ccc(OCCNS(=O)(=O)CC3CC3)cc2[C@H]1Cc1ccccc1 (relative stereo) [Example 4b, trans-N-(2-{[-4-benzyl-3-(methylamino)-3,4-dihydro-2H-chromen-6-yl]oxy}ethyl)-1-cyclopropylmethanesulfonamide] | ≤ 100 nM
CN[C@@H]1COc2ccc(CNS(=O)(=O)c3cn(C)cn3)cc2[C@@H]1Cc1ccccc1 (relative stereo) [Example 5a, cis-1-Methyl-1H-imidazole-4-sulfonic acid (4-benzyl-3-methylamino-chroman-6-ylmethyl)-amide] | ≤ 10 nM
CN[C@@H]1COc2ccc(CNS(=O)(=O)c3cn(C)cn3)cc2[C@H]1Cc1ccccc1 (relative stereo) [Example 5b, trans-1-Methyl-1H-imidazole-4-sulfonic acid (4-benzyl-3-methylamino-chroman-6-ylmethyl)-amide] | ≤ 10 nM
CN[C@@H]1COc2ccc(CNS(=O)(=O)c3cnn(C)c3)cc2[C@@H]1Cc1ccccc1 (relative stereo) [Example 6a, cis-N-{[4-benzyl-3-(methylamino)-3,4-dihydro-2H-chromen-6-yl]methyl}-1-methyl-1H-pyrazole-4-sulfonamide] | ≤ 10 nM
CN[C@@H]1COc2ccc(CNS(=O)(=O)c3cnn(C)c3)cc2[C@H]1Cc1ccccc1 (relative stereo) [Example 6b, trans-N-{[-4-benzyl-3-(methylamino)-3,4-dihydro-2H-chromen-6-yl]methyl}-1-methyl-1H-pyrazole-4-sulfonamide] | ≤ 10 nM
CCCS(=O)(=O)NCc1ccc2c(c1)[C@H](Cc1ccccc1)[C@H](NC)CO2 (relative stereo) [Example 7a, cis-N-{[4-Benzyl-3-(methylamino)-3,4-dihydro-2H-chromen-6-yl]methyl}propane-1-sulfonamide] | ≤ 10 nM
CCCS(=O)(=O)NCc1ccc2c(c1)[C@@H](Cc1ccccc1)[C@H](NC)CO2 (relative stereo) [Example 7b, trans-N-{[4-benzyl-3-(methylamino)-3,4-dihydro-2H-chromen-6-yl]methyl}propane-1-sulfonamide] | ≤ 100 nM
CN[C@@H]1COc2ccc(CNS(=O)(=O)CC3CC3)cc2[C@@H]1Cc1ccccc1 (relative stereo) [Example 8a, cis-N-{[4-Benzyl-3-(methylamino)-3,4-dihydro-2H-chromen-6-yl]methyl}-1-cyclopropylmethanesulfonamide] | ≤ 10 nM
CN[C@@H]1COc2ccc(CNS(=O)(=O)CC3CC3)cc2[C@H]1Cc1ccccc1 (relative stereo) [Example 8b, trans-N-{[4-benzyl-3-(methylamino)-3,4-dihydro-2H-chromen-6-yl]methyl}-1-cyclopropylmethanesulfonamide] | ≤ 100 nM
CCS(=O)(=O)NCc1ccc2c(c1)[C@H](Cc1ccccc1)[C@H](NC)CO2 (relative stereo) [Example 9a, cis-N-{[4-Benzyl-3-(methylamino)-3,4-dihydro-2H-chromen-6-yl]methyl}ethanesulfonamide] | ≤ 100 nM
CCS(=O)(=O)NCc1ccc2c(c1)[C@@H](Cc1ccccc1)[C@H](NC)CO2 (relative stereo) [Example 9b, trans-N-{[4-benzyl-3-(methylamino)-3,4-dihydro-2H-chromen-6-yl]methyl}ethanesulfonamide] | ≤ 1000 nM
Cn1cnc(S(=O)(=O)NCCOc2ccc3c(c2)[C@H](Cc2ccccc2)[C@H](N2CCC2)CO3)c1 (relative stereo) [Example 10, cis-1-Methyl-1H-imidazole-4-sulfonic acid [2-(3-azetidin-1-yl-4-benzyl-chroman-6-yloxy)-ethyl]-amide] | ≤ 10 nM
O=S(=O)(CC1CC1)NCCOc1ccc2c(c1)[C@H](Cc1ccccc1)[C@H](N1CCC1)CO2 (relative stereo) [Example 11, cis-N-[2-(3-Azetidin-1-yl-4-benzyl-chroman-6-yloxy)-ethyl]-C-cyclopropyl-methanesulfonamide] | ≤ 1000 nM
Cn1cnc(S(=O)(=O)NCc2ccc3c(c2)[C@H](Cc2ccccc2)[C@H](N)CO3)c1 (relative stereo) [Example 12, cis-1-Methyl-1H-imidazole 4-sulfonic acid (3-amino-4-benzyl-chroman-6-ylmethyl)-amide] | ≤ 10 nM
Cn1cnc(S(=O)(=O)NCc2ccc3c(c2)[C@@H](Cc2ccccc2)[C@H](N)CO3)c1 (relative stereo) [Example 13, trans-1-Methyl-1H-imidazole-4-sulfonic acid (3-amino-4-benzyl-chroman-6-ylmethyl)-amide] | ≤ 10 nM
CCCS(=O)(=O)NCCOc1ccc2c(c1)[C@H](Cc1ccccc1)[C@H](N1CCC1)CO2 (relative stereo) [Example 14, cis-Propane-1-sulfonic acid [2-(3-azetidin-1-yl-4-benzyl-chroman-6-yloxy)-ethyl]-amide; trifluoro-acetic acid salt] | ≤ 100 nM
